# Where two headings read alike, the source gives them in different places.
# Experiments:
# [1] = system: phosphatase alcaline; test: Quantitative RT-PCR, osteoblast differentiation marker: alkaline phosphatase; format: cell-based, rats Wistar; conditions: Rattus norvegicus; for activation at 5 µM: AA+βGP+Fisétine 5µM
# Description: (§1) Les préostéoblastes primaires ont été isolés à partir de la calotte crânienne de rats Wistar nouveaux-nés par digestion enzymatique comme précédemment décrit [Declercq, H., Van den Vreken, N., De Maeyer, E., Verbeeck, R., Schacht, E., De Ridder, L., and Cornelissen, M. (2004). Isolation, proliferation and differentiation of osteoblastic cells to study cell/biomaterial interactions: comparison of different isolation techniques and source. Biomaterials 25, 757-68.]. Les précurseurs d'ostéoclastes RAW264.7 ont été obtenus auprès de l'ATCC (Manassas, VA, USA). Les préostéoblastes et les RAW264.7 ont été cultivés dans du milieu α-MEM (Invitrogen, Carlsbad, CA, USA) supplémenté avec 10% de SVF décomplémenté et de 100 unités/ml de pénicilline-streptomycine.
# L'extraction des ARN totaux (cellules et fémurs) a été effectuée en utilisant le réactif TRIzol, la transcription inverse (RT) a été réalisée à l'aide du kit de synthèse d'ADNc Dynamo (Thermo Scientific, Waltham, MA, USA) et l'analyse PCR en temps réel a été réalisée avec le Mastercycler ep Realplex2 (Eppendorf, Hambourg, Allemagne). Toutes les valeurs ont été normalisées par la GAPDH. Les séquences des oligos utilisés sont : ALP F 5'-GGCCAGCTACACCACAACA-3' / ALP R 5'-[…] -3' / OCN F 5'-AGACTCCGGCGCTACCTT -3' / OCN R 5'-[…]-3'/ COL1 F 5'-[…]-3' / COL1 R 5'-[…]-3' / GAPDH F 5'-[…]-3' / GAPDH R 5'-[…]-3'
# [2] = system: RAW264.7; test: TRAP staining: RANKL-induced osteoclast differentiation, count of multinucleated TRAP+ cells; format: cell-based
# Description: as §1
# Pour la coloration TRAP, 60.000 cellules RAW264.7 ont été ensemencées dans des puits de plaques 12 puits pendant 12 heures puis traitées avec du DMSO/éthanol comme témoin ou de la fisétine (5 µM dans le DMSO) ou du DHA (50µM dans l'éthanol) ou la combinaison des deux (Fisétine 5 µM et DHA 50 µM) pendant 3 heures. Les cellules ont ensuite été induites à se différencier en présence de RANKL (50 ng/ml) avec du DMSO/éthanol ou de la fisétine (5 µM) ou du DHA (50 µM) ou la combinaison des deux (Fisétine 5 µM et DHA 50 µM) durant 4 jours avec un changement de milieux après 2 jours. De la BSA délipidée et sans endotoxines a été utilisée pour solubiliser le DHA avec un rapport 1/5 (BSA/DHA).
# La coloration TRAP a été réalisée en utilisant le kit « leukocyte acid phosphatase » (Sigma-Aldrich) selon les recommandations du fournisseur après fixation des cellules. Les cellules TRAP+ multinucléées ont ensuite été comptées.
smiles,measurement,setting,value
"O=c1c(O)c(-c2ccc(O)c(O)c2)oc2cc(O)ccc12 [Fisétine, 3,3',4',7-tétrahydroxyflavone]",activation at 1 µM,"[1]; 168 h, AA+βGP+Fisétine 1 µM, J7, read-out: expression de la phosphatase alcaline par rapport à la condition « AA+βGP seuls »",84%
same,activation at 5 µM,"[1]; 168 h, J7, read-out: expression de la phosphatase alcaline par rapport à la condition « AA+βGP seuls »",146%
same,activation at 1 µM,"[1]; 336 h, AA+βGP+Fisétine 1µM, J14, read-out: expression de la phosphatase alcaline par rapport à la condition « AA+βGP seuls »",37%
same,activation at 5 µM,"[1]; 336 h, J14, read-out: expression de la phosphatase alcaline par rapport à la condition « AA+βGP seuls »",88%
same,inhibition at 5 µM,"[2]; Mus musculus, RAW264.7, 96 h, Fisétine 5µM, RANKL 50 ng/ml, 4 days, vs RANKL condition, read-out: inhibition de l'induction par RANKL de la formation de cellules multinucléées TRAP+ (ostéoclastes)",45%
same,ostéoclastes/cm^2,"[2]; condition RANKL+Fisétine (5µM), RANKL alone 735+/-251",404+/-148 ostéoclastes/cm^2

# Source: patent publication EP2999467B1, “USE OF A COMBINATION OF TWO COMPOUNDS FOR THE TREATMENT AND/OR PREVENTION OF BONE DISORDERS” (Institut National de la Recherche Agronomique (INRA), priority 2013, dated 2014)
